Assay results as given in US20210032257A1, “(E)-1-(4-(DIMETHYLAMINO)BUT-2-ENOYL)PYRROLIDIN-3-YL 4-((3-ISOPROPYL-5-METHYLPYRAZOLO[1,5-A]PYRIMIDIN-7-YL)AMINO)PIPERIDINE-1-CARBOXYLATE FOR INHIBITING CDK7” (Eli Lilly and Company, priority 2017, published 2021).

What was measured:
Test in all cases: Biomarker study proliferation (CellTiter-Glo)
Format in all cases: cell-based
SKHEP1 = system: SKHEP1
Procedure: (§1) Cancer cell lines are profiled to evaluate the anti-proliferative activity of a test compound in-vitro. Mutation, copy number and gene expression information of ARID1A, KMT2C, KMT2D and/or RB1 genes across cancer cell lines is obtained from COSMIC database (cancer.sanger.ac.uk) and cBioportal (http://www.cbioportal.org/). Cells are cultured in growth medium and plated into a 96-well plate in 100 μL/well growth medium at 5000 cells/well then incubated at 37° C., 5% CO2 overnight. Cells are cultured using supplier recommended media and conditions well known in the art, for example with RPMI 1640 with or without HEPES & L-Glutamine (Thermo SH30255.01) and 1 mM Sodium Pyruvate, and 10% FBS(Gibco cat #10082). The 1000× intermediate dilution plate is prepared by making a 10 mM working solution of a test sample in DMSO and performing 1:3 dilutions in DMSO for 10 points. The 10× dosing plate is prepared by adding 2 μL from the 1000× intermediate dilution plate to 198 μL of OPTIMEM®+10% FBS and mixing well. The cell plate is then treated by adding 11 μL from the 10× dosing plate into the 100 μL/well cell plate for a 1× final concentration. Staurosporine is used as a maximum growth inhibition control at a final concentration of 5 μM. The cell plate is incubated for 7 days at 37° C., 5% CO2. Seven days after treatment, Cell Titer-Glo® (Promega cat #G7571) assay buffer and substrate are removed from −20° C. and allowed to equilibrate to RT. Assay buffer is added to the substrate and swirled gently to mix. The CELL TITER-GLO® reagent (100 μL/well) is added to the cell plate and incubated at RT for 15 minutes. After 15 minutes, luminescence is read using a plate reader. Data is analyzed in Excel and graphed in GraphPad Prism. Statistical analysis and p value is calculated using Mann-Whitney nonparameteric t tests using GraphPad Prism.
(§2) Anti-proliferative effects of a test compound are categorized as insensitive (IC50≥1 μM), cytostatic (IC50<1 μM and % inhibition <70%) or cytotoxic (IC50<1 μM and % inhibition ≥70%).

NCIH596 = system: NCIH596
Procedure: as §1, §2

SW837 = system: SW837
Procedure: as §1, §2

NCIH358 = system: NCIH358
Procedure: as §1, §2

NCIH2030 = system: NCIH2030
Procedure: as §1, §2

KURAMOCHI = system: KURAMOCHI
Procedure: as §1, §2

NUGC3 = system: NUGC3
Procedure: as §1, §2

HCC1187 = system: HCC1187
Procedure: as §1, §2

MDAMB231 = system: MDAMB231
Procedure: as §1, §2

JURKAT = system: JURKAT
Procedure: as §1, §2

PLCPRF5 = system: PLCPRF5
Procedure: as §1, §2

NCIH524 = system: NCIH524
Procedure: as §1, §2

NCIH1299 = system: NCIH1299
Procedure: as §1, §2

SHSY5Y = system: SHSY5Y
Procedure: as §1, §2

MCF7 = system: MCF7
Procedure: as §1, §2

KE97 = system: KE97
Procedure: as §1, §2

UMUC3 = system: UMUC3
Procedure: as §1, §2

SW780 = system: SW780
Procedure: as §1, §2

## Cc1cc(NC2CCN(C(=O)O[C@H]3CCN(C(=O)/C=C/CN(C)C)C3)CC2)n2ncc(C(C)C)c2n1 [Example 1, [(3S)-1-[(E)-4-(dimethylamino)but-2-enoyl]pyrrolidin-3-yl] 4-[(3-isopropyl-5-methyl-pyrazolo[1,5-a]pyrimidin-7-yl)amino]piperidine-1-carboxylate]
SKHEP1; Homo sapiens, SK-HEP1, 168 h, read-out: Anti-proliferation effect IC50
  IC50: 118 nM
SKHEP1; SKHEP1, LIVER, 7 days
  Anti-proliferation effect % Inh.: 71%
  Anti-proliferation effect Outcome: Cytotoxic (cytotoxic (IC50<1 μM and % inhibition ≥70%))
NCIH596; Homo sapiens, NCI-H596, 168 h, read-out: Anti-proliferation effect IC50
  IC50: 922 nM
NCIH596; NCIH596, LUNG, 7 days
  Anti-proliferation effect % Inh.: 46%
  Anti-proliferation effect Outcome: Cytostatic (cytostatic (IC50<1 μM and % inhibition <70%))
SW837; Homo sapiens, SW837, 168 h, read-out: Anti-proliferation effect IC50
  IC50: 68 nM
SW837; SW837, INTESTINE, 7 days
  Anti-proliferation effect % Inh.: 55%
  Anti-proliferation effect Outcome: Cytostatic (cytostatic (IC50<1 μM and % inhibition <70%))
NCIH358; Homo sapiens, NCI-H358, 168 h, read-out: Anti-proliferation effect IC50
  IC50: 42 nM
NCIH358; NCIH358, LUNG, 7 days
  Anti-proliferation effect % Inh.: 93%
  Anti-proliferation effect Outcome: Cytotoxic (cytotoxic (IC50<1 μM and % inhibition ≥70%))
NCIH2030; Homo sapiens, NCI-H2030, 168 h, read-out: Anti-proliferation effect IC50
  IC50: 5370 nM
NCIH2030; NCIH2030, LUNG, 7 days
  Anti-proliferation effect % Inh.: 9%
  Anti-proliferation effect Outcome: Insensitive (insensitive (IC50≥1 μM))
KURAMOCHI; 168 h, read-out: Anti-proliferation effect IC50
  IC50: 52 nM
KURAMOCHI; KURAMOCHI, OVARY, 7 days
  Anti-proliferation effect % Inh.: 88%
  Anti-proliferation effect Outcome: Cytotoxic (cytotoxic (IC50<1 μM and % inhibition ≥70%))
NUGC3; Homo sapiens, NUGC-3, 168 h, read-out: Anti-proliferation effect IC50
  IC50: 30 nM
NUGC3; NUGC3, STOMACH, 7 days
  Anti-proliferation effect % Inh.: 81%
  Anti-proliferation effect Outcome: Cytotoxic (cytotoxic (IC50<1 μM and % inhibition ≥70%))
HCC1187; HCC1187, BREAST, 7 days
  Anti-proliferation effect % Inh.: 73%
  Anti-proliferation effect Outcome: Cytotoxic (cytotoxic (IC50<1 μM and % inhibition ≥70%))
HCC1187; Homo sapiens, HCC1187, 168 h, read-out: Anti-proliferation effect IC50
  IC50: 27 nM
MDAMB231; Homo sapiens, MDA-MB-231, 168 h, read-out: Anti-proliferation effect IC50
  IC50: 2820 nM
MDAMB231; MDAMB231, BREAST, 7 days
  Anti-proliferation effect % Inh.: 23%
  Anti-proliferation effect Outcome: Insensitive (insensitive (IC50≥1 μM))
JURKAT; Homo sapiens, Jurkat, 168 h, read-out: Anti-proliferation effect IC50
  IC50: 61 nM
JURKAT; JURKAT, BLOOD, 7 days
  Anti-proliferation effect % Inh.: 98%
  Anti-proliferation effect Outcome: Cytotoxic (cytotoxic (IC50<1 μM and % inhibition ≥70%))
PLCPRF5; Homo sapiens, PLC-PRF-5, 168 h, read-out: Anti-proliferation effect IC50
  IC50: > 10000 nM
PLCPRF5; PLCPRF5, LIVER, 7 days
  Anti-proliferation effect % Inh.: 41%
  Anti-proliferation effect Outcome: Insensitive (insensitive (IC50≥1 μM))
NCIH524; Homo sapiens, NCI-H524, 168 h, read-out: Anti-proliferation effect IC50
  IC50: 37 nM
NCIH524; NCIH524, LUNG, 7 days
  Anti-proliferation effect % Inh.: 92%
  Anti-proliferation effect Outcome: Cytotoxic (cytotoxic (IC50<1 μM and % inhibition ≥70%))
NCIH1299; Homo sapiens, NCI-H1299, 168 h, read-out: Anti-proliferation effect IC50
  IC50: 195 nM
NCIH1299; NCIH1299, LUNG, 7 days
  Anti-proliferation effect % Inh.: 44%
  Anti-proliferation effect Outcome: Cytostatic (cytostatic (IC50<1 μM and % inhibition <70%))
SHSY5Y; Homo sapiens, SH-SY5Y, 168 h, read-out: Anti-proliferation effect IC50
  IC50: 59 nM
SHSY5Y; SHSY5Y, CNS, 7 days
  Anti-proliferation effect % Inh.: 95%
  Anti-proliferation effect Outcome: Cytotoxic (cytotoxic (IC50<1 μM and % inhibition ≥70%))
MCF7; Homo sapiens, MCF7, 168 h, read-out: Anti-proliferation effect IC50
  IC50: 155 nM
MCF7; MCF7, BREAST, 7 days
  Anti-proliferation effect % Inh.: 58%
  Anti-proliferation effect Outcome: Cytostatic (cytostatic (IC50<1 μM and % inhibition <70%))
KE97; KE97, BLOOD, 7 days
  Anti-proliferation effect % Inh.: 58%
  Anti-proliferation effect Outcome: Cytostatic (cytostatic (IC50<1 μM and % inhibition <70%))
KE97; KE-97, 168 h, read-out: Anti-proliferation effect IC50
  IC50: 158 nM
UMUC3; Homo sapiens, UMUC3, 168 h, read-out: Anti-proliferation effect IC50
  IC50: 161 nM
UMUC3; UMUC3, URINARY, 7 days
  Anti-proliferation effect % Inh.: 70%
  Anti-proliferation effect Outcome: Cytotoxic (cytotoxic (IC50<1 μM and % inhibition ≥70%))
SW780; Homo sapiens, SW780, 168 h, read-out: Anti-proliferation effect IC50
  IC50: 74 nM
SW780; SW780, URINARY, 7 days
  Anti-proliferation effect % Inh.: 68%
  Anti-proliferation effect Outcome: Cytostatic (cytostatic (IC50<1 μM and % inhibition <70%))
